Reference: publication PMC10341573, “Design, Synthesis, and Biological Evaluation of Novel Quinazolin-4(3H)-One-Based Histone Deacetylase 6 (HDAC6) Inhibitors for Anticancer Activity” (International Journal of Molecular Sciences, 2023)
Like-named read-outs stand apart in the source and are kept apart here.

Tests used:
[1] = molecular target: T1, HDAC8 (Homo sapiens, UniProt Q9BY41); test: HDAC enzyme activity assay (fluorogenic, Boc-Lys(trifluoroacetyl)-AMC), HDAC8; assay type: biochemical; details: class I HDAC8; mean ± SD, triplicate
T1 construct: codon-optimized full-length HDAC8; made in house; host or cells: E. coli BL21(DE3), pET14b vector
T1 sequence (Q9BY41 1-377): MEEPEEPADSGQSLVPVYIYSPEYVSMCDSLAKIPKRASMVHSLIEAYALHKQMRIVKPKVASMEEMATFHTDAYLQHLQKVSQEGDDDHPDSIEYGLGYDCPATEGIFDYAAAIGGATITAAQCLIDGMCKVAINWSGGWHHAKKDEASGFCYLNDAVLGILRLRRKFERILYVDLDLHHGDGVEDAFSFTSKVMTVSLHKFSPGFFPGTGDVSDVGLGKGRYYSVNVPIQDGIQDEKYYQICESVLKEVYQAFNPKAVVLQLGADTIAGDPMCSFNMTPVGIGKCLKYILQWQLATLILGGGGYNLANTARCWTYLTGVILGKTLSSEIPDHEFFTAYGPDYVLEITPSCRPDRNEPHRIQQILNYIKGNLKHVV

[2] = test system: MCF7 and HCT-116 cells; test: Clonogenic assay; assay type: cell-based, human; details: 12–14 days
Protocol: To evaluate the effect of compound 5c on the cell survival of MCF7 and HCT-116 cells, a clonogenic assay was performed. Colony formation of MCF7 and HCT-116 cells was inhibited by compound 5c in a dose-dependent manner, compared to the control cells treated with DMSO (Figure 11).
MCF7 and HCT-116 cells were seeded in a six-well culture plate at a density of 500 cells/well. After cells adhered completely, they were incubated in the culture medium with DMSO, 0.1 μM 5c, and 1 μM 5c. The medium, along with the treatment, was replenished every 3 days for 12–14 days. The colonies formed were fixed with a 3:1 ratio of methanol and glacial acetic acid for 10 min. The wells were then washed with 1× PBS, and cells were stained with 0.5% v/v crystal violet solution for 10 min [55]. Excess stain was washed off in running water, and images were taken after proper drying. Colonies were counted visually or using ImageJ software, NIH (Version 1.53K). The stain taken up by the colonies was dissolved in 0.1% SDS, and absorbance was read at 540 nm. Graphs were plotted using GraphPad Prism 8.0.2.

[3] = test system: HEK 293; test: MTT cell proliferation assay, HEK 293; assay type: cell-based, human; details: Homo sapiens, HEK293; MTT, 72 h; mean ± SD, triplicate; read-out: IC50 ± SD HEK 293
[4] = test system: acetyl-H3; test: Western blot of acetyl-H3 in MCF7 and HCT-116 cells; assay type: cell-based, human; details: compared to untreated control
[5] = molecular target: T2, HDAC4 (Homo sapiens, UniProt P56524); test: HDAC enzyme activity assay (fluorogenic, Boc-Lys(trifluoroacetyl)-AMC), HDAC4; assay type: biochemical; details: class IIa HDAC4; mean ± SD, triplicate
T2 construct: catalytic domain of HDAC4 (T648-T1057, full length: UniProt P56524); made in house; host or cells: E. coli BL21(DE3), pET14b vector

[6] = test system: MCF7; test: MTT cell proliferation assay, MCF7; assay type: cell-based, human; details: MTT, 72 h, mean ± SD, triplicate, read-out: IC50 ± SD MCF7
[7] = test system: cleaved PARP; test: Western blot of cleaved PARP; assay type: cell-based, human; details: MCF7 and HCT-116 cells, compared to untreated cells
From the text: (§1) The control had intact nuclei, as depicted by the green fluorescence due to AO binding to dsDNA, in contrast to the apoptotic nuclei of 5c-treated cells depicted by orange fluorescence due to AO staining of ssDNA and RNA. This observation was supported by the protein expression of cleaved poly (ADP-ribose) polymerase (PARP), which represents the degree of apoptosis in cells, as shown in Figure 9B. […] Acridine orange (AO) staining can also be influenced by autophagosomal pH.
On the basis of the results obtained from the cell proliferation assay, further experiments were conducted on MCF7 and HCT-116 cells treated with compound 5c. The cells were harvested, and 0.1 × 10^6 cells were seeded in a 12-well cell culture plate and allowed to adhere properly. The cells were then incubated with 0.1 μM and 1 μM concentrations of compound 5c for 24 h. Cells were pelleted in 1× PBS and lysed using ice-cold RIPA buffer. The protein concentration of the lysate was quantified using the Bradford assay and an equal concentration of sample proteins was run on 12% SDS-PAGE and transferred onto 0.45 μm PVDF membrane (Millipore (St. Louis, MO, USA), Immobilon IPVH00010). […]

[8] = test system: MCF7 cells; test: Cell-cycle analysis by flow cytometry; assay type: cell-based, human
Protocol: Cell-cycle distribution analysis was carried out further to evaluate the effect of 5c on HDAC inhibition, as HDCA inhibitors are mainly known to target genes regulating the cell cycle. The 5c-treated MCF7 cells were subjected to cell-cycle analysis by flow cytometry.
Cell-cycle analysis was carried out using a cell-cycle analysis kit (Sigma-Aldrich, MAK344) according to the protocol given by the manufacturer. MCF7 cells were treated with DMSO or 0.1 μM and 1 μM concentrations of compound 5c and incubated for 48 h. Cells were then trypsinized and pelleted down. The pellets were washed with 1× cell-cycle buffer and fixed in ice-cold 70% ethanol for 1 h at 4 °C. The fixated cells were treated with ribonuclease A (RNase A) and stained with PI at room temperature for 30 min. Analysis was carried out using FlowJo 10.7.2..

[9] = test system: MCF7 and HCT-116 cells; test: Acridine orange staining and fluorescence imaging; assay type: cell-based, human; details: 48 h
From the text: as §1

[10] = test system: B16; test: MTT cell proliferation assay, B16; assay type: cell-based, murine; details: Mus musculus, B16; MTT, 72 h; mean ± SD, triplicate; read-out: IC50 ± SD B16

T2 sequence (P56524 648-1057): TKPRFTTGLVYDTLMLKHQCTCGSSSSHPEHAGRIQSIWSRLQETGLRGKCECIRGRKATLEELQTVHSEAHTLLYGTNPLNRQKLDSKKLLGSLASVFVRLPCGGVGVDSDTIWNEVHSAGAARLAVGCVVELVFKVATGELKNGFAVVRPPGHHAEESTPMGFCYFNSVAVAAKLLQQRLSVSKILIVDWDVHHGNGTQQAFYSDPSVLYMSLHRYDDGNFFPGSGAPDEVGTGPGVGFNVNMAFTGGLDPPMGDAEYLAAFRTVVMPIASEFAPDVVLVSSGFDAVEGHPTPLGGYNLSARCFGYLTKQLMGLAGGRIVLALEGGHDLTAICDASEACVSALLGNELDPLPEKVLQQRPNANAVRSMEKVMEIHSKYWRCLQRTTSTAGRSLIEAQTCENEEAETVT

With `Cc1ccc(-n2c(SCc3ccc(C(=O)NO)cc3)nc3ccccc3c2=O)cc1` [Compound 5c, N-hydroxy-4-(((4-oxo-3-(p-tolyl)-3,4-dihydroquinazolin-2-yl)thio)methyl)benzamide] the IC50 [1] was 2300 ± 500 nM, the number of colonies ([2]; MCF7 and HCT-116, 0.1 μM) was “significantly reduced” and the “cell anchorage and growth” value ([2]; MCF7 and HCT-116, 1 μM) was “almost completely arrested”. For the same molecule, the IC50 [3] was 35.1 ± 18.7 µM, the “acetylation of H3” value [4] was “increase in acetylation of H3, but only at a higher concentration” and the IC50 [5] was 720 ± 210 nM. The IC50 ([6]; Homo sapiens, MCF7, 72 h) was 13.7 µM, the IC50 [6] was 13.7 ± 0.83 µM and the “protein expression of cleaved PARP” value [7] was “significantly higher”. For the same molecule, the “cell population in G2/M phase” value ([8]; MCF7, 0.1 μM, 48 h) was “significant increase”, the “cell population in the G1 and S phases” value ([8]; MCF7, 0.1 μM, 48 h) was “slight reduction” and the “effect on cells at 1 μM” value ([8]; MCF7, 1 μM) was “necrosis and cell death”. For the same molecule, the “apoptosis by acridine orange staining” value [9] was “evidential apoptosis” and the IC50 [10] was 15 ± 3.34 µM.
